Entries after “also recorded” stand apart in the source; their conditions may differ.
Legend:
iNOS [1] = experiment: Immunoblotting for iNOS protein in cytokine-stimulated H9c2 cardiac myoblasts; format: cell-based, rat; settings: H9c2
Protocol: Cell cultures. H9c2 cells purchased from American Type Culture Collection (ATCC, Rockville, Md.) are spontaneously immortalized ventricular myoblasts from the rat embryo, with preservation of several electrical and biochemical characteristics found in adult cardiomyocytes. They were cultured in DMEM medium (ATCC) supplemented with 10% heat-inactivated fetal bovine serum (FBS) in 95% air and 5% CO2 at 37° C. […] After certain time intervals, 100 μL/well culture media were collected for determination of nitrite production.
Immunoblotting. Total proteins were isolated from rat cardiac myoblasts (H9c2 cells) or embryonic stem cells in an ice-cold lysis buffer containing 10 mmol/L Tris (tris(hydroxymethyl)aminomethane) (pH 7.4), 1% sodium dodecyl sulfate (SDS) and 1× protease inhibitor (1 mmol/L sodium orthovanadate). Proteins (15 μg/lane) were separated under the reducing conditions (125 mM Tris pH 6.8, 4% SDS, 10% glycerol, 0.006% bromophenol blue, 2% β-mercaptoethanol) by electrophoresis onto 5-10% SDS-polyacrylamide gel and electro-blotted to nitrocellulose membranes (Osmonics, Westborough, Mass.). The membranes were reversibly stained with Ponceau red (Sigma) to verify equal protein loading and/or transfer. After blocking in Tris-buffered saline (0.2 M Tris and 8% NaCl) containing 5% non-fat powdered milk and 0.1% Tween 20 for 1 hour at room temperature, the membranes were incubated overnight at 4° C. with following primary antibodies to (a) iNOS (Transduction Laboratories, Lexington, Ky.; BD Biosciences); (b) NF-κB p65/rel (Santa Cruz Biotechnologies, Santa Cruz, Calif.); (c) ser^32-phosphorylated inhibitor IκBα (Santa Cruz); (d) Bad (BD Biosciences, San Jose, Calif.); (e) Bcl-xL (BD Biosciences); (f) proliferating cell nuclear antigen (PCNA; BC Biosciences); (g) ryanodine receptor (Santa Cruze Biotechnology, Inc., Santa Cruz, Calif.); (h) α-sarcomeric actinin (Sigma); (i) myocardin A (developed by immunizing rabbits with a synthetic myocardin A peptide); (j) Tie-2 (Santa Cruz); (k) manganese superoxide dismutase (Santa Cruz); and (1) β-tubulin (Sigma). The blots were incubated with horseradish peroxidase-coupled secondary antibodies, washed and developed by using a SuperSignal West Pico Chemiluminescent Substrate Kit (Pierce, Rockford, Ill.). Intensity of each immunoreactive protein band was quantified by densitometric analysis. Cytokine-stimulated RAW 264.7 cells (Transduction Laboratories, Lexington, Ky.) were used as positive controls.

iNOS [2] = experiment: Nitrite production (Griess reaction) in H9c2 cardiac myoblasts; format: cell-based, rat; settings: added to simvastatin + IL-1α 20 ng/mL
Protocol: Cell cultures. H9c2 cells purchased from American Type Culture Collection (ATCC, Rockville, Md.) are spontaneously immortalized ventricular myoblasts from the rat embryo, with preservation of several electrical and biochemical characteristics found in adult cardiomyocytes. […] After certain time intervals, 100 μL/well culture media were collected for determination of nitrite production. Assay for NO Production. The activity of iNOS was determined in the culture medium by assaying nitrites, taken as an index of NO production, using the Griess reagent (1% sulphanilic acid and 0.1% N-[1-naphtyl] ethylenediamine-HCl in 5% phosphoric acid) as reported previously (4,18,19). Equal volumes of medium and Griess reagent were mixed, and the purple products quantified spectrophotometrically at 550 nm. Nitrite concentrations were determined from a linear standard curve constructed with known concentrations of sodium nitrite (0 to 40 μmol/L nitrite). Nitrite Assays. Nitrite, a stable end-product of nitric oxide, was measured by using Griess reagent (1% sulphanilic acid and 0.1% N-[1-naphtyl] ethylenediamine-HCl in 5% phosphoric acid). Equal volumes of medium and Griess reagent were mixed, and the resulting purple product quantified by spectrophotometric assay at 550 nm. Nitrite concentrations were calculated from a linear standard curve constructed with known concentrations of sodium nitrite (0-14 μmol/L nitrite) (19).

NF-κB p65/RelA = experiment: Immunoblotting for p65/RelA subunit of NF-κB, total cellular or nuclear proteins of H9c2 cells; format: cell-based, rat; settings: simvastatin + IL-1α + L-mevalonate
[3] = tested on: murine embryonic stem cells; format: cell-based
Protocol: At day 12, the number of contracting EB outgrowths (Panel A) and extension of beating area (Panel B) were detrmined by morphometry. The results were plotted as percentages of the total EBs counted in each well and shown as the mean ±SD for each of the 3 separate experiments. *, P<0.05 vs untreated control; #, P<0.05 vs simvastatin-treated control.
The murine ESC (mESC) line CCE was obtained from American Type Culture Collection (ATCC, Rockville, Md.). Murine ESCs were cultured without feeder cells in Dulbecco's modified Eagle's medium supplemented with 10% ESC-qualified Fetal Bovine Serum (FBS) (Stem Cell Technologies, Vancouver, Va.), pyruvate (Stem Cell Technologies, stock solution diluted 1:100), 2 mM L-glutamine, nonessential amino acids (Stem Cell Technologies, stock solution diluted 1:100), 100 IU/mL penicillin, 0.1 mg/mL streptomycin, and leukemia inhibitory factor (LIF) (Stem Cell Technologies). To induce differentiation, EBs were formed from undifferentiated mESCs in hanging drops of 400 cells in 20 μL of medium without LIF. After 5 days in suspension, EBs were plated on gelatin-coated dishes and cultured in cardiomyocyte-differentiation medium (Iscove's modified Eagle's medium, supplemented with 15% FBS, 2 mM L-glutamine, 5×10^−5 M β-mercaptoethanol, nonessential aminoacids, 100 IU/mL penicillin, 0.1 mg/mL streptomycin).
Statin Treatment. […] The inhibition of endogenous cholesterol synthesis was the mechanism used for analyzing the effect of endogenous cholesterol depletion on EB differentiation. By days 8 through 12 after plating, spontaneously contracting cell clusters could be observed within the EB outgrowths. Culture media from both simvastatin-treated and untreated cells were changed each day after day 3.
Spontaneous cardiac differentiation of mouse embryonic stem cells (mESCs) was assessed in vitro as the presence of rhythmically beating […] (EB) outgrowth. […] Thereafter, EB outgrowths were counted periodically under the inverted microscope equipped with a digital video camera, to determine whether or not they contained beating foci at different time points (days 3, 5, 7, 10, 12, and 14). At approximately day 7, contracting areas began to appear. […] Concomitant with the increased number of beating EBs, the size of the beating area for simvastatin-treated EBs increased 2-fold (evaluated at day 12) compared to that of untreated control EBs, a significant augmentation (p<0.05) (FIG. 22B).

H9c2 embryonic myoblasts [4] = experiment: Immunoblotting for Bad, Bcl-xL and PCNA in H9c2 embryonic myoblasts with IL-1; format: cell-based, rat; settings: L-mevalonate added to simvastatin + IL-1
Protocol: Quantitation of protein bands was achieved by densitometry (Panels D, E and F, bottom). β-Tubulin staining of stripped blots was used as a control. […] PCNA, proliferating cell nuclear antigen; IL-1, interleukin-1-α; iNOS, inducible nitric oxide synthase; MnSOD, manganese superoxide dismutase.
(§1) The rat embryonic myogenic cell line H9c2 was commercially obtained from ATCC and maintained in Dulbecco's modified Eagle's medium (GIBCO) supplemented with 10% FBS at 37° C. in 95% air and 5% CO2.
Immunoblotting. Total proteins were isolated from rat cardiac myoblasts (H9c2 cells) or embryonic stem cells in an ice-cold lysis buffer containing 10 mmol/L Tris (tris(hydroxymethyl)aminomethane) (pH 7.4), 1% sodium dodecyl sulfate (SDS) and 1× protease inhibitor (1 mmol/L sodium orthovanadate). Proteins (15 μg/lane) were separated under the reducing conditions (125 mM Tris pH 6.8, 4% SDS, 10% glycerol, 0.006% bromophenol blue, 2% β-mercaptoethanol) by electrophoresis onto 5-10% SDS-polyacrylamide gel and electro-blotted to nitrocellulose membranes (Osmonics, Westborough, Mass.). The membranes were reversibly stained with Ponceau red (Sigma) to verify equal protein loading and/or transfer. […] Intensity of each immunoreactive protein band was quantified by densitometric analysis. […]

H9c2 embryonic myoblasts [5] = experiment: Apoptosis assay (acridine orange and ethidium bromide) in H9c2 embryonic myoblasts; format: cell-based, rat; settings: mevalonate 10^−4 mol/l with IL-1 + simvastatin
Protocol: The cells were exposed with IL-1αSimvastatin for 24 hours and then stained with two fluorochromes: acridine orange and ethidium bromide. Living (green fluorescence) and apoptotic (red fluorescence) cells were identified and counted with an Olympus fluorescence microscope connected to a computer imaging station.
as §1
Assays for Apoptosis. Analysis of apoptotic cells was performed by fluorescent microscopy with fluorochromes acridine orange and ethidium bromide (Sigma), as described previously (19). Apoptotic cells were discernible by their condensed, fragmented nuclei stained with both fluorochromes and were counted under a fluorescence microscope (Olympus, Center Valley, Pa.) connected to a computer imaging analysis station.

NF-κB = settings: cited from earlier work
iNOS [6] = settings: cited from earlier work
[7] = injected subcutaneously over the calvaria of mice; cited from earlier work
[8] = orally administered to rats; cited from earlier work
Rho kinase = settings: cited from earlier work
iNOS [9] = settings: lovastatin pretreatment; cited from earlier work

In the case of `CC(O)(CCO)CC(=O)O` [L-mevalonate], the “effect on simvastatin inhibition of cytokine-induced iNOS protein expression” value (iNOS [1]; added to simvastatin + IL-1α or TNF-α) is reported as “reversibly blocked; also recorded: blocks the simvastatin inhibitory effect; also recorded: diminished the inhibitory effect of simvastatin”, the “cytokine-induced iNOS protein expression in the absence of simvastatin” value (iNOS [1]; cytokine-stimulated, no simvastatin) is reported as “no or little effect on cytokine-induced iNOS expression” and the “effect on nitrite production in cells treated with simvastatin plus IL-1α” value (iNOS [2]) is reported as “significantly increased the nitrite concentrations”. For the same molecule, the “nuclear p65/rel protein levels in statin-treated, cytokine-stimulated cells” value (NF-κB p65/RelA) was “could elevate the nuclear p65/rel protein levels”, the “cytotoxicity in EBs” value [3] was “without any cytotoxicity” and the “contracting EBs in the absence of simvastatin” value ([3]; L-mevalonate alone) was “no or little effect on contracting EBs”. For the same molecule, the “effect on the simvastatin effect on Bcl-xL” value (H9c2 embryonic myoblasts [4]) was “reversed the statin effect” and the “effect on the simvastatin cytoprotective effect” value (H9c2 embryonic myoblasts [5]) was “diminished”.
In the case of `CC[C@H](C)C(=O)O[C@H]1CCC=C2C=C[C@H](C)[C@H](CC[C@@H]3C[C@@H](O)CC(=O)O3)[C@H]21` [mevastatin], the “NF-κB activity and NF-κB-dependent VCAM and E-selectin expression” value (NF-κB) is listed as “inactivate NF-κB and reduce NF-κB-dependent expression of the endothelial adhesion proteins”.
In the case of `CC[C@H](C)C(=O)O[C@H]1C[C@@H](C)C=C2C=C[C@H](C)[C@H](CC[C@@H]3C[C@@H](O)CC(=O)O3)[C@H]21` [lovastatin], the “iNOS and cytokine expression” value (iNOS [6]; rat macrophages, astrocytes, and microglia) is listed as “inhibits iNOS and cytokine expression”, the “LPS-induced iNOS expression” value (iNOS [6]; rat primary astrocytes) is listed as “blocks LPS-induced iNOS expression” and the bone formation [7] is listed as “increase bone formation”. The cancellous bone volume [8] was “increased cancellous bone volume”, the Rho kinase activity (Rho kinase) was “inhibit the Rho kinase activity” and the “IL-1beta induction of iNOS” value (iNOS [9]) was “superinduction of iNOS”.

— patent US20070190651A1, “Myogenic Development and Protection of Stem Cells Against Inflammation and Apoptosis By Statins and Isoprenoid Pathway Inhibitors” (Board of Regents of the University of Texas System, priority 2006, published 2007)
